# Read-outs that look alike come from different tables or passages of the source.
# Legend:
# oestrogen receptor = settings: rat uterine cytosol competitive binding assay; J. Med. Chem. 25, 167-171 (1982); cited from earlier work
# [1] = system: receptor from calf uterine cytosol; settings: calf uterine cytosol (oestradiol = 100); J. Med. Chem. 32, 2527-2533 (1989); cited from earlier work
# [2] = biological target: calmodulin dependent cAMP-PDE (Homo sapiens, UniProt P0DP23); assay: Antagonism of calmodulin dependent cAMP-PDE (inhibiting the activation of cyclic AMP phosphodiesterase by calmodulin); format: biochemical
# rat uterine receptor = settings: Cancer Research 51, 5851-5858 (1991); cited from earlier work
# [3] = system: MCF-7 human breast cancer cell line; assay: Short term in vitro cytotoxicity against MCF-7 human breast cancer cell line; settings: MCF7, read-out: Short Term in vitro cytotoxicity MCF-7 IC50 ± SD
# Experimental: For some compounds, cytotoxicity against the MCF-7 human breast cancer cell line was determined.
# oestrogen receptor (ER) = biological target: T1, oestrogen receptor (ER) (Rattus norvegicus, UniProt P06211); assay: Relative binding affinity for the oestrogen receptor, rat uterine cytosol competitive binding assay
# T1 construct: from tissue; host or cells: rat uterine cytosol
# T1 sequence (P06211 1-600): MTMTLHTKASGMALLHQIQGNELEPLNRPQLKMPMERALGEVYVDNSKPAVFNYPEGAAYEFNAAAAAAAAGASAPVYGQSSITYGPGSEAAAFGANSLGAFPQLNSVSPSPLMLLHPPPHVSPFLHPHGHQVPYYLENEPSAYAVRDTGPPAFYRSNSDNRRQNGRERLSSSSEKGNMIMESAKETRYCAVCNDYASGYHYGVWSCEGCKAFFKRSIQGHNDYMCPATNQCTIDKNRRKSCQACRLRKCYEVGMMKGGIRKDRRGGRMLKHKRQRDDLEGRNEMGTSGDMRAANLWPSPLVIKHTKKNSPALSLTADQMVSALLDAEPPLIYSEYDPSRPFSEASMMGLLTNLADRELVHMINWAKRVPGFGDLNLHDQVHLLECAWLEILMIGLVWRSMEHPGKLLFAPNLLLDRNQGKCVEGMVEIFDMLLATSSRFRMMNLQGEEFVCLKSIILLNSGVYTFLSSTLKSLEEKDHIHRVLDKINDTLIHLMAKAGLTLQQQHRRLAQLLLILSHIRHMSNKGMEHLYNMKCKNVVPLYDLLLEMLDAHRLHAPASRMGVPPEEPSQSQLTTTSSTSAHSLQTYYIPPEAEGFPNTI
# Experimental: For some compounds, cytotoxicity against the MCF-7 human breast cancer cell line was determined. The test methods used were those described by M. G. Rowlands et al., Biochemical Pharmacology 40, 283-289 (1990). The relative binding offinity (RBA) for the oestrogen receptor (ER) was measured in a rat uterine cystosol competitive binding assay as described by A. E. Wakeling, 1987 (Chapter 7 p219-236 in "STEROID HORMONES--A PRACTICAL APPROACH" Eds B. Green and R. E. Leake, IRL Press Ltd, Oxford, UK).
# [4] = ± SD, read-out: Antagonism of calmodulin dependent cAMP-PDE IC50 ± SD
"IC50 [2, 4] [nM]",SMILES,binding affinity for the oestrogen receptor compared with pyrrolidino tamoxifen itself (n=2) (oestrogen receptor),RBA with receptor from calf uterine cytosol [1],RBA for rat uterine receptor (rat uterine receptor),IC50 [3] [nM],IC50 [2] [nM],"Binding affinity for ER, RBA (oestrogen receptor (ER))"
1450 ± 80,CC/C(=C(\c1ccc(I)cc1)c1ccc(OCCN2CCCC2)cc1)c1ccccc1 [Idoxifene],–,5,12.5,7270 ± 380,–,–
1110 ± 70,"CC/C(=C(\c1ccc(I)cc1)c1ccc(OCCCN2CCCC2)cc1)c1ccccc1 [n = 3, NR^1 = R^2 = pyrrolidino, E-1-(4-(3-(N-pyrrolidino)propoxy)phenyl)-1-(4-iodophenyl)-2-phenyl-1-butene]",–,–,–,4500 ± 70,–,23
260 ± 50,"CC/C(=C(\c1ccc(I)cc1)c1ccc(OCCCCCCCCN2CCCC2)cc1)c1ccccc1 [n = 8, NR^1 = R^2 = pyrrolidino]",–,–,–,–,–,4

# The next lines start with the compound.
SMILES,"IC50 [2, 4] [nM]",binding affinity for the oestrogen receptor compared with pyrrolidino tamoxifen itself (n=2) (oestrogen receptor),RBA with receptor from calf uterine cytosol [1],RBA for rat uterine receptor (rat uterine receptor),IC50 [3] [nM],IC50 [2] [nM],"Binding affinity for ER, RBA (oestrogen receptor (ER))"
CC/C(=C(\c1ccccc1)c1ccc(OCCCN2CCCC2)cc1)c1ccccc1,–,lower binding affinity for the oestrogen receptor,–,–,–,–,–
CC/C(=C(\c1ccc(I)cc1)c1ccc(OCCN(C)C)cc1)c1ccccc1 [4-iodotamoxifen],2300 ± 420,–,5,12.5,7630 ± 60,–,–
C[C@]12CC[C@@H]3c4ccc(O)cc4CC[C@H]3[C@@H]1CC[C@@H]2O [17β-estradiol],–,–,100,–,–,–,–
CC/C(=C(\c1ccccc1)c1ccc(OCCN(C)C)cc1)c1ccccc1 [Tamoxifen],–,–,1,5,14000 ± 1000,6750 ± 1060,–
"CC/C(=C(\c1ccc(I)cc1)c1ccc(OCCCN(C)C)cc1)c1ccccc1 [n = 3, R^1 = R^2 = CH3, E-1-(4-(3-(Dimethylamino)propoxy)phenyl)-1-(4-1iodophenyl)-2,phenyl-1-butene]",2020 ± 170,–,–,–,–,–,–
"CC/C(=C(\c1ccc(I)cc1)c1ccc(OCCCCN2CCCC2)cc1)c1ccccc1 [n = 4, NR^1 = R^2 = pyrrolidino, E-1(4-(4-(N-pyrrolidino)butoxy)phenyl)-1-(4-iodophenyl)-2-phenylbutene]",1010 ± 80,–,–,–,3990 ± 600,–,9
"CC/C(=C(\c1ccc(I)cc1)c1ccc(OCCCCN(C)C)cc1)c1ccccc1 [n = 4, R^1 = R^2 = CH3, E-1-(4-(4-(Dimethylamino)butoxy)phenyl)-1-(4-iodophenyl)-2-phenyl-1-butene]",2250 ± 180,–,–,–,–,–,25

# Reference: US5589500A, “Substituted 1,1,2-triphenylbutenes and their use in the treatment of cancer” (priority 1992, dated 1996)
